# ChEMBL document CHEMBL1155115 (J Med Chem, 2008)
# What was measured:
# Dictyostelium discoideum = test: Antimicrobial activity against Dictyostelium discoideum; type: functional, organism-based
# [1] = target: T1, Farnesyl pyrophosphate synthase (Homo sapiens) (UniProt P14324); test: Inhibition of farnesyl diphosphate synthase at 35 nM
# T1 sequence (whole entry): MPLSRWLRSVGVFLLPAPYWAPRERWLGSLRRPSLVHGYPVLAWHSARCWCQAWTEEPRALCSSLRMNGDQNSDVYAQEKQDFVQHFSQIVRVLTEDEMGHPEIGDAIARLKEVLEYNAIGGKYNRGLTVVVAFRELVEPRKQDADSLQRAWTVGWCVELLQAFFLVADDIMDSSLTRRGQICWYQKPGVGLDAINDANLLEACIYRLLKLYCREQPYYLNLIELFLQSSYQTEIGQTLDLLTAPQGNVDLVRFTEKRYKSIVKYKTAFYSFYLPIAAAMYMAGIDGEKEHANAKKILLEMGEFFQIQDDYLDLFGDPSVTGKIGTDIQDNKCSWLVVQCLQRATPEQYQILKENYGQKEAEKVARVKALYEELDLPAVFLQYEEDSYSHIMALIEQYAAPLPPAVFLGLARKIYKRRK
# [2] = target: T1, Farnesyl pyrophosphate synthase (Homo sapiens); test: Inhibition of farnesyl diphosphate synthase at 30 nM
Structure (SMILES),IC50 (Dictyostelium discoideum),inhibition [1],inhibition [2]
CC[n+]1cccc(CC(P(=O)([O-])O)P(=O)(O)O)c1 (stereo unspecified),27 µM,59%,–
O=P(O)(O)C(O)(CC1CCCNC1)P(=O)(O)O (stereo unspecified),30 µM,–,58%
Nc1ccccc1CC(O)(P(=O)(O)O)P(=O)(O)O,18 µM,–,–
O=P(O)(O)C(O)(Cc1ccccc1)P(=O)(O)O,< 240 µM,–,–
